Among the data in patent US11820756B2, “Bradykinin B2 receptor antagonists” (Pharvaris Netherlands B.V., priority 2017, dated 2023) are IC50 values, retold here.

The assay has as its target T1, human bradykinin B2 receptor (hB2R) (Homo sapiens, UniProt P30411).
T1 sequence (P30411 1-391): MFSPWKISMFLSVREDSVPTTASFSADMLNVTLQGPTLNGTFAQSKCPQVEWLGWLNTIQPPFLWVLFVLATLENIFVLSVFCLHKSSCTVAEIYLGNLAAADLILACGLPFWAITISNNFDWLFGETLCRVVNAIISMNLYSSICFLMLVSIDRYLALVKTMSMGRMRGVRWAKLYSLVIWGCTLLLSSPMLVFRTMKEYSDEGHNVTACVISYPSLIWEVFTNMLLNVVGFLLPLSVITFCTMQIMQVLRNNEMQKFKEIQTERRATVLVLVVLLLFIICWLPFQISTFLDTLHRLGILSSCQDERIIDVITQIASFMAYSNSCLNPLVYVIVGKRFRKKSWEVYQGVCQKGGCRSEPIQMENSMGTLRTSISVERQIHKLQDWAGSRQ
Nature of the assay: cell-based human bradykinin B2 receptor calcium mobilization (hB2R-CaM) assay. The note with it: HTS041C cells, bradykinin at EC80, calcium mobilization; read-out: IC50-value towards human bradykinin B2 receptor (hB2R). The source says:
The following cell-based human bradykinin B2 receptor calcium mobilization (hB2R-CaM) assay was used to determine the antagonistic activity of compounds selected from the example compounds Nos. 1 to 168 towards human bradykinin B2 receptor (hB2R). The assay is defined herein as a standard in vitro B2 receptor activity assay, which can be used to determine IC50 values of the compounds according to the present invention, e. g. the compounds shown in Examples 1-11.
The antagonistic activity of compounds according to the present invention was investigated with the hB2R-CaM assay using the B2 Bradykinin Receptor Stable Cell Line HTS041C (Eurofins, St. Charles MO) and the FLIPR Calcium 6 Assay Kit (Molecular Devices, Wokingham, UK) according to the instructions of the providers. CaM assay measurements were performed with a Flexstation 3 System (Molecular Devices) which allows the precise addition of compounds (B2R antagonists) and bradykinin (B2R agonist) to the cells and adjacent continuous recording of the time-dependent CaM assay signals.
HTS041C cells were cultured in high glucose DMEM cell culture medium (Lonza) supplemented with 10% heat-inactivated FBS (PAN Biotech), 10 mM HEPES, Penicillin/Streptomycin (200 U/mL, 200 μg/mL), 1× non-essential amino acids (Lonza), and 250 μg/mL G418 (Invivogen) in cell incubator at 37° C. in a 5% CO2 atmosphere.
One day before the CaM assay experiments cells were seeded in 200 μL DMEM cell culture medium with reduced FBS (5%) and without G418 on clear bottom black 96 well plates (ThermoFisher #165305). Cell starvation was carried out by incubation (37° C., 5% CO2) of 70.000 cells/well for 24 h to 28 h. Immediately prior calcium dye-loading the medium was carefully aspirated and cells were washed with Hank's balanced salt solution (HBSS, Gibco) containing Ca^2+, Mg^2+ and 20 mM HEPES, adjusted to pH 7.4 (HBSS+). Calcium Dye Loading of the Cells:
For calcium dye-loading one FLIPR 6 assay aliquot was dissolved in 20 mL HBSS+. 150 μL of the dye loading solution was added to cell plate and incubated for 120 min at 37° C. and 5% CO2. After dye loading the cell plate was immediately transferred to the pre-warmed (37° C.) Flexstation 3 System for CaM assaying.
Freshly prepared compound (B2 receptor antagonists) dilution series (8 pt, n=2) and bradykinin (B2 receptor agonist) solution in non-binding plates (Costar) were transferred to the Flexstation System (source plate) shortly before starting the experiment. Bradykinin was added in EC80 concentration determined in n>3 preliminary experiments with 8 pt concentration response curves (n=8)). CaM assay was executed by Flexstation 3 System starting with recording of calcium-sensitive dye fluorescence in bottom-read Flex modus with ex/em=485 nm/525 nm, cut off(em)=[…]. After 20 s, 50 μL of 4-fold concentrated compound dilutions were added to the cells resulting in a final DMSO (Sigma) concentration of 0.1% in the cell plate. CaM signals were monitored for 80 s after additions for detection of potential agonistic activities. Prior to bradykinin stimulus compound- and vehicle-treated cells were incubated for 25 min at 37° C. within the Flexstation System. Then 50 μL of a 5-fold concentrated bradykinin solution (HBSS+, 0.1% DMSO) was added to trigger CaM signals (Read out: Max-Min values) which were measured for 80 s post bradykinin stimulus.
IC50 determinations were performed by 4 parameter logistic model curve fitting of the 8 pt (n=2) compound concentration response curves using XLFIT (IDBS) software.
Relative IC50 values of the test compounds were determined with the same hB2R-CaM assay as in Example 12.
In general terms: Calcium assays in cells follow changes in intracellular calcium, usually with a dye or a luminescent sensor.

The IC50 is the concentration at which inhibition is half-maximal. Turning to `Cc1cc(-c2ncnn2C)c2cccc(OCc3c(Cl)cc(F)cc3[C@H](CO)NC(=O)COC(F)F)c2n1` [Compound 190], the IC50 was not above 50 nM.
The result for `Cc1cc(-n2cc(F)cn2)c2cccc(OCc3c(Cl)cc(F)cc3[C@H](C)NC(=O)C(C)(C)C(F)(F)F)c2n1` [Compound 48] reads 51 to 250 nM; that for `[2H][C@@](C)(NC(=O)CC(F)(F)F)c1cc(F)cc(Cl)c1COc1cccc2c(-n3ncnc3C)cc(C)nc12` [Compound 208], not above 50 nM.
The result for `Cc1cc(-n2ncnc2C)c2cccc(OCc3c(Cl)cc(F)cc3[C@H](C)NC(=O)C(F)F)c2n1` [Compound 174] reads not above 50 nM.
The result for `Cc1cc(-c2[nH]ncc2C)c2cccc(OCc3c(Cl)cc(F)cc3[C@H](C)NC(=O)c3cnco3)c2n1` [Compound 187] reads not above 50 nM; that for `Cc1cc(-n2ncnc2C)c2cccc(OCc3c(Cl)cc(F)cc3[C@H](C)NC(=O)c3cc(C)on3)c2n1` [Compound 158], not above 50 nM; that for `Cc1cc(-n2ncnc2C)c2cccc(OCc3c(Cl)cc(F)cc3[C@H](C)NC(=O)c3cnco3)c2n1` [Compound 95], not above 50 nM.
On to `Cc1cc(-c2ncnn2C)c2cccc(OCc3c(Cl)cc(F)cc3[C@H](C)NC(=O)c3cnco3)c2n1` [Compound 120], for which the 50% inhibitory concentration (IC50) is not above 50 nM.
The result for `Cc1cc(-n2cc(F)cn2)c2cccc(OCc3c(Cl)cc(F)cc3[C@H](C)NC(=O)c3cc(C)n(C)n3)c2n1` [Compound 86] reads 51 to 250 nM; that for `Cc1cc(-c2ncnn2C)c2cccc(OCc3c(Cl)cc(F)cc3[C@H](C)NC(=O)COC(F)(F)F)c2n1` [Compound 116], not above 50 nM; that for `Cc1cc(-n2cc(F)cn2)c2cccc(OCc3c(Cl)cc(F)cc3[C@H](C)NC(=O)C3CN(C)C3)c2n1` [Compound 65], 251 to 1000 nM.
The same measure for `CC[C@H](NC(=O)c1coc(C)n1)c1cc(F)cc(Cl)c1COc1cccc2c(-c3ncnn3C)cc(C)nc12` [Compound 149]: not above 50 nM.
The result for `CO[C@@H](C)C(=O)N[C@@H](C)c1cc(F)cc(Cl)c1COc1cccc2c(-n3nccn3)cc(C)nc12` [Compound 29] reads not above 50 nM.
As for `Cc1cc(-n2cc(F)cn2)c2cccc(OCc3c(Cl)cc(F)cc3[C@H](C)NC(=O)c3c(C)noc3C)c2n1` [Compound 87], the IC50 fell in the range of 51 to 250 nM.
The result for `[2H][C@@](C)(NC(=O)c1cocn1)c1cc(F)cc(Cl)c1COc1cccc2c(-c3ncnn3C)cc(C)nc12` [Compound 199] reads not above 50 nM; that for `Cc1cc(-n2cc(F)cn2)c2cccc(OCc3c(Cl)cc(F)cc3[C@H](C)NC(=O)[C@H](O)CC(C)C)c2n1` [Compound 47], 251 to 1000 nM; that for `COC(=O)[C@@H](O)CC(=O)N[C@@H](C)c1cc(F)cc(Cl)c1COc1cccc2c(-n3cc(F)cn3)cc(C)nc12` [Compound 70], not above 50 nM.
The same measure for `CC[C@H](NC(=O)c1coc(C)n1)c1cc(F)cc(Cl)c1COc1cccc2c(-n3cc(F)cn3)cc(C)nc12` [Compound 152]: 51 to 250 nM; for `Cc1cc(-n2cc(F)cn2)c2cccc(OCc3c(Cl)cc(F)cc3[C@H](C)N(C)C(=O)[C@H](C)Cl)c2n1` [Compound 103]: 51 to 250 nM; for `Cc1cc(-n2cc(F)cn2)c2cccc(OCc3c(Cl)cc(F)cc3[C@H](C)NC(=O)c3cn(C)cn3)c2n1` [Compound 108]: 51 to 250 nM.
The same measure for `CC[C@H](NC(=O)COC(F)F)c1cc(F)cc(Cl)c1COc1cccc2c(-n3ncnc3C)cc(C)nc12` [Compound 166]: not above 50 nM; for `Cc1cc(-n2cc(F)cn2)c2cccc(OCc3c(Cl)cc(F)cc3[C@H](C)NC(=O)[C@H]3CCOC3)c2n1` [Compound 15]: not above 50 nM.
As for `Cc1cc(-c2ncnn2C)c2cccc(OCc3c(Cl)cc(F)cc3[C@H](CO)NC(=O)c3cnco3)c2n1` [Compound 191], the IC50 is not above 50 nM.
The result for `CCn1ncnc1-c1cc(C)nc2c(OCc3c(Cl)cc(F)cc3[C@H](C)NC(=O)C(C)(C)O)cccc12` [Compound 143] reads not above 50 nM; that for `[2H][C@@](C)(NC(=O)CC(F)F)c1cc(F)cc(Cl)c1COc1cccc2c(-n3ncnc3C)cc(C)nc12` [Compound 209], not above 50 nM; that for `Cc1cc(-n2nccn2)c2cccc(OCc3c(Cl)cc(F)cc3[C@H](C)NC(=O)[C@H](C)O)c2n1` [Compound 32], 51 to 250 nM.
The result for `Cc1cc(-c2ncnn2C)c2cccc(OCc3c(Cl)cc(F)cc3[C@H](C)NC(=O)[C@@H](C)F)c2n1` [Compound 204] reads not above 50 nM.
The same measure for `[2H]C([2H])([2H])[C@]([2H])(NC(=O)c1cocn1)c1cc(F)cc(Cl)c1COc1cccc2c(-c3ncnn3C)cc(C)nc12` [Compound 201]: not above 50 nM; for `Cc1cc(-n2cc(F)cn2)c2cccc(OCc3c(Cl)cc(F)cc3[C@H](C)NC(=O)[C@@H](O)CC(C)C)c2n1` [Compound 46]: 51 to 250 nM.
Consider `Cc1cc(-n2cc(F)cn2)c2cccc(OCc3c(Cl)cc(F)cc3[C@H](C)NC(=O)c3cocn3)c2n1` [Compound 82], for which the IC50 was not above 50 nM.
The same measure for `Cc1cc(-c2ncnn2C)c2cccc(OCc3c(Cl)cc(F)cc3[C@H](C)NC(=O)CC(F)F)c2n1` [Compound 197]: not above 50 nM; for `Cc1cc(-n2nc(C)nc2C)c2cccc(OCc3c(Cl)cc(F)cc3[C@H](C)NC(=O)c3cc(C)on3)c2n1` [Compound 136]: 51 to 250 nM.
The same measure for `Cc1cc(-n2cc(F)cn2)c2cccc(OCc3c(Cl)cc(F)cc3[C@H](C)NC(=O)[C@H](C)CO)c2n1` [Compound 59]: not above 50 nM.
The result for `Cc1cc(-n2cc(F)cn2)c2cccc(OCc3c(Cl)cc(F)cc3[C@H](C)NC(=O)C(C)OCC3CC3)c2n1` (stereo partly drawn) [Compound 51] reads 51 to 250 nM.
As for `CCn1ncnc1-c1cc(C)nc2c(OCc3c(Cl)cc(F)cc3[C@H](C)NC(=O)COC(F)(F)F)cccc12` [Compound 145], the IC50 was not above 50 nM.
The result for `Cc1cc(-c2ncnn2C)c2cccc(OCc3c(Cl)cc(F)cc3[C@H](C)NC(=O)c3cccnc3)c2n1` [Compound 162] reads not above 50 nM; that for `COCC(=O)N[C@@H](C)c1cc(F)cc(Cl)c1COc1cccc2c(-c3ncnn3C)cc(C)nc12` [Compound 83], not above 50 nM; that for `Cc1cc(-c2ncnn2C)c2cccc(OCc3c(Cl)cc(F)cc3[C@H](C)NC(=O)c3ccncc3)c2n1` [Compound 163], not above 50 nM.
For `[2H][C@@](CO)(NC(=O)COC(F)F)c1cc(F)cc(Cl)c1COc1cccc2c(-c3ncnn3C)cc(C)nc12` [Compound 11B, (R)—N-(1-Deutero-1-(3-chloro-5-fluoro-2-((2-methyl-4-(1-methyl-1H-1,2,4-triazol-5-yl)quinolin-8-yloxy)methyl)phenyl)-2-hydroxyethyl)-2-(difluoromethoxy)acetamide], the IC50 is not above 50 nM.
The result for `[2H][C@@](C)(NC(=O)COC(F)F)c1cc(F)cc(Cl)c1COc1cccc2c(-n3ncnc3C)cc(C)nc12` [Compound 168] reads not above 50 nM.
`Cc1cc(-n2cc(F)cn2)c2cccc(OCc3c(Cl)cc(F)cc3[C@H](C)NC(=O)CO)c2n1` [Compound 49]: the IC50 was in the range of 51 to 250 nM.
The result for `Cc1cc(-n2ncnc2C)c2cccc(OCc3c(Cl)cc(F)cc3[C@H](C)NC(=O)C(C)(C)O)c2n1` [Compound 160] reads not above 50 nM.
